Like-named read-outs stand apart in the source and are kept apart here. Values belong to the compound of their own block, whether it stands above or below them.
What was measured:
hTAS2R39 [1] = molecular target: T1, hTAS2R39 (Homo sapiens, UniProt P59534); assay: Calcium assay of hTAS2R39 activation/inhibition in HEK293 T-Rex Flp-In cells; type: cell-based; details: for reduction of ECG response on hTAS2R39 (screening for inhibition): simultaneous application of 200 μM ECG and 250 μM flavanone, inhibition when response ratio <1; for EC80 on hTAS2R39: agonist dose-response curve
T1 construct: first 45 amino acids of rat somatostatin receptor type 3 (sst3 membrane-targeting tag) (N); expressed in transfected cells; host or cells: HEK293 T-Rex Flp-In cells stably expressing Gα16-gust44; receptor in pcDNA5/FRT, induced with doxycycline
T1 sequence (P59534 1-338): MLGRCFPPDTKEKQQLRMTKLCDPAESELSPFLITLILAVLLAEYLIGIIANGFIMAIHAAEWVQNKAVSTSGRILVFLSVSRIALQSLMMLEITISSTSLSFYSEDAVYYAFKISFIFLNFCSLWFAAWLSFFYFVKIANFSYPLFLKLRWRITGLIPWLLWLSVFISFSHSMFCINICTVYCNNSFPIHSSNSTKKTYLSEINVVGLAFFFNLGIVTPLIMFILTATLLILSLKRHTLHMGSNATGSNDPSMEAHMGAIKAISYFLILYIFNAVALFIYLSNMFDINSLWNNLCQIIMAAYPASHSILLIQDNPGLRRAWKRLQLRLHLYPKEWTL

hTAS2R14 = molecular target: T2, hTAS2R14 (Homo sapiens, UniProt Q9NYV8); assay: Calcium assay of hTAS2R14 activation/inhibition in HEK293 T-Rex Flp-In cells; type: cell-based; details: for IC50, Simultaneous / Threshold, Simultaneous: simultaneous addition, n.b. = no blocking; for EC80 on hTAS2R14: agonist concentration used in inhibition tests
T2 construct: first 45 amino acids of rat somatostatin receptor type 3 (sst3 membrane-targeting tag) (N); expressed in transfected cells; host or cells: HEK293 T-Rex Flp-In cells stably expressing Gα16-gust44; induced with doxycycline
T2 sequence (Q9NYV8 1-317): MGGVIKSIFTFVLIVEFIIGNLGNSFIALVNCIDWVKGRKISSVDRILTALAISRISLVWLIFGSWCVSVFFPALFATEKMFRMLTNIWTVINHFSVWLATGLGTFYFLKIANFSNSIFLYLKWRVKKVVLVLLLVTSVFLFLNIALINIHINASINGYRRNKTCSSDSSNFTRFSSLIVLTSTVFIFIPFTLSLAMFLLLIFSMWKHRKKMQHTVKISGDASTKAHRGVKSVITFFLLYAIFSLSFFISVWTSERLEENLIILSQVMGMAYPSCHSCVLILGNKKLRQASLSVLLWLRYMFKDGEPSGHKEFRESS
Excerpt: For functional expression of the human bitter taste receptor hTAS2R39, HEK293 T-Rex Flp-In cells (Invitrogen, San Diego, CA, USA) were used, stably expressing the chimeric G-protein α-subunit Gα16-gust44 (cloned into pcDNA4 (Invitrogen)) and the human bitter receptor genes for hTAS2R39 (cloned into pcDNA5/FRT (Invitrogen)). The bitter receptor gene contained a DNA sequence encoding the first 45 amino acids of rat somatostatin receptor type 3 at its 5′ end (the receptor expression was achieved according to [18] with exception of the HSV-tag), in order to improve membrane targeting of the receptor protein. The same procedure was applied for stable expression of hTAS2R14. Cells were maintained in Dulbecco's Modified Eagle's Medium (DMEM) and 10% (v/v) tetracycline-free FBS (both Lonza, Verviers, Belgium) supplemented with blasticidin (5 μg/mL), geneticin (400 μg/mL) and hygromycin (100 μg/mL) (all from Invitrogen). Cells were grown and maintained at 37 °C and 5% (v/v) CO2.
Cells were seeded into poly-L-lysine-coated (Sigma-Aldrich) 96-well plates (black wall, clear bottom, Greiner bio-one, Frickenhausen, Germany) at a density of 7*10^3 cells in 100 μL/well and cultured for 24 h. Transcription of the receptors was induced by adding 0.25 μg/mL doxycycline (Sigma-Aldrich). […] One hour after loading, cells were washed with Tyrode's buffer and taken up in Tyrode's buffer. Stock solutions of test compounds were prepared in DMSO and diluted to the appropriate concentration in Tyrode's buffer, not exceeding a DMSO concentration of 1% (v/v).
(§1) Two methods of compound administration were applied: simultaneous and stepwise addition of potential antagonist and agonist. The first 17 s before compound addition were used for baseline determination. For the simultaneous method, agonist and potential antagonist were pre-mixed, administered after 17 s, and fluorescence was measured for in total 90 s. For the stepwise method, after 17 s, the potential antagonist was added, fluorescence was measured until 120 s, and after 120 s the agonist was added and measured for another 120 s, in total 240 s. […] Each experiment was performed at least in duplicate in separate experiments (as indicated for each figure).
Data processing was done as reported previously. In brief, SoftMax Pro 5.4 software (Molecular Devices Corporation) was used to plot the fluorescence signals. The fluorescence value (ΔF/F0), representing receptor activity, was calculated by subtracting the baseline fluorescence (F0) prior to loading from the maximum fluorescence (F) after compound addition, divided by the signal of the baseline in order to normalize background fluorescence. Dose-response curves were established as non-linear regression curves using Graph Pad Prism (version 4 for Windows, Graph Pad Software, San Diego, CA, USA). Half-maximal effective concentrations (EC50) and half-maximal inhibitory concentrations (IC50) were calculated. Error bars reflect the standard error of the mean (SEM). Statistical analysis was performed in Graph Pad Prism (one-way ANOVA at 5% risk level, followed by Bonferroni's post hoc test).
Inhibition was indicated when [drawing 1] . In case of indicated inhibition, flavanones were applied at different concentrations, in order to test for dose-dependent inhibition, at the EC80 concentration of the agonist. […] To investigate the specificity of flavanones for inhibition of hTAS2R39 and hTAS2R14, another bitter taste receptor, hTAS2R16 (not known to be activated by flavonoids), was used in inhibition experiments ( File S3 ) towards its agonist salicin.

hTAS2R16 = molecular target: T3, hTAS2R16 (Homo sapiens, UniProt Q9NYV7); assay: Calcium assay of hTAS2R16 activation/inhibition (salicin as agonist); type: cell-based
T3 construct: expressed in transfected cells; host or cells: induced versus non-induced cells
T3 sequence (Q9NYV7 1-291): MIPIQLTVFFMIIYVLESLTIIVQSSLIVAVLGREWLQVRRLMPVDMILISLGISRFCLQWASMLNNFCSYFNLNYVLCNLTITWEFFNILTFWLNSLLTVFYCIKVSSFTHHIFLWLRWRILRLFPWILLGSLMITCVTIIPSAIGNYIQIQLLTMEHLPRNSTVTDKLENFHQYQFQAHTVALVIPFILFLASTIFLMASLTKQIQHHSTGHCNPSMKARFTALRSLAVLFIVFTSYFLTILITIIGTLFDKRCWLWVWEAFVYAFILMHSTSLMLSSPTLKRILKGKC
Experimental: Cells were seeded into poly-L-lysine-coated (Sigma-Aldrich) 96-well plates (black wall, clear bottom, Greiner bio-one, Frickenhausen, Germany) at a density of 7*10^3 cells in 100 μL/well and cultured for 24 h. Transcription of the receptors was induced by adding 0.25 μg/mL doxycycline (Sigma-Aldrich). Cells were induced for 24 h and then loaded with the calcium-sensitive fluorescent dye Fluo-4-AM (2.5 μM, Invitrogen), which was dissolved in Tyrode's buffer containing 5% (v/v) tetracycline-free FBS (Lonza). One hour after loading, cells were washed with Tyrode's buffer and taken up in Tyrode's buffer. Stock solutions of test compounds were prepared in DMSO and diluted to the appropriate concentration in Tyrode's buffer, not exceeding a DMSO concentration of 1% (v/v).
as §1, with “Receptor activation or inhibition was measured via intracellular Ca^2+ release in a FlexStation II 384 or FlexStation III (Molecular Devices Corporation, Sunnyvale, CA, USA) by measuring fluorescence (excitation 485 nm/emission 520 nm) for either 90 s or 240 s at 37°C. Two” for “Two”
Screening for hTAS2R39 inhibition by flavanones was performed with simultaneous application of agonist (200 μM ECG) and putative antagonist (250 μM flavanone). Inhibition was indicated when [drawing 1] . In case of indicated inhibition, flavanones were applied at different concentrations, in order to test for dose-dependent inhibition, at the EC80 concentration of the agonist. Another agonist of hTAS2R39, denatonium benzoate, was used in inhibition experiments at 1.7 mM (EC80). hTAS2R14 inhibition was tested with 640 μM ECG or 70 μM genistein as agonists, representing their respective EC80 concentrations. To investigate the specificity of flavanones for inhibition of hTAS2R39 and hTAS2R14, another bitter taste receptor, hTAS2R16 (not known to be activated by flavonoids), was used in inhibition experiments ( File S3 ) towards its agonist salicin.
SUPPORTING INFORMATION to the article “6-Methoxyflavanones as Bitter Taste Receptor Blockers for hTAS2R39” by Roland, WSU; Gouka, RJ; Gruppen, H; Driesse, M; van Buren, L; Smit, G; Vincken, J-P File S3 Investigation of identified inhibitors on hTAS2R16.
To investigate whether the hTAS2R39 inhibitors 6,3’-dimethoxyflavanone (3), 4’- fluoro-6-methoxyflavanone (6), and 6-methoxyflavanone (11) were able to inhibit a bitter receptor not known for flavonoid activation, hTAS2R16 was selected for inhibition experiments. Measuring dose-response curves of the hTAS2R16 agonist […]
Figure S3. Inhibition of response of 10 mM salicin (---) on hTAS2R16 (induced (●), non-induced (○)) by 4’-fluoro-6-methoxyflavanone (6) after simultaneous addition (A) and stepwise addition (B), by 6,3’-dimethoxyflavanone (3) after simultaneous addition (C) and stepwise addition (D), and by 6-methoxyflavanone (11) after simultaneous addition (E) and stepwise addition (F). […]

bitter taste = system: bitter taste; set-up: method as in PMID 16028996; details: in-vivo sensory masking, unknown mechanism; cited from earlier work
hTAS2R39 [2] = molecular target: T1, hTAS2R39; set-up: method as in PMID 24117141; details: cited from earlier work
[3] = inhibition of hTAS2R14 response to 70 μM genistein
[4] = inhibition of hTAS2R14 response to 640 μM ECG
[5] = 0 μM 4′-fluoro-6-methoxyflavanone (6), stepwise addition, read-out: EC50 of agonist on hTAS2R39

- inhibition of hTAS2R39 activation (hTAS2R39 [1]; data not shown): unable to inhibit hTAS2R39 activation
SMILES: COc1ccc2oc(-c3ccccc3)cc(=O)c2c1 [6-methoxyflavone, reference compound]

- IC50, Simultaneous (hTAS2R14; [3]): n.b.
- Threshold, Simultaneous (hTAS2R14; [3]): n.b.
- inhibition of salicin response on hTAS2R16 (hTAS2R16; 10 mM salicin, simultaneous and stepwise addition): no inhibition
SMILES: COc1cccc(C2CC(=O)c3cc(OC)ccc3O2)c1 (stereo not drawn) [Compound 3, 6,3′-Dimethoxyflavanone]
- IC50, Simultaneous (hTAS2R14; [4]): n.b.
- Threshold, Simultaneous (hTAS2R14; [4]): n.b.
- IC50 (hTAS2R14; inhibition of hTAS2R14 response to 640 μM ECG, stepwise addition): ~250 µM

SMILES: O=C1C[C@@H](c2ccc(O)c(O)c2)Oc2cc(O)cc(O)c21 [Compound 4, Eriodictyol]
- reduction of the bitter taste of different chemical classes of bitter molecules (bitter taste): up to 40%
- activation of hTAS2R39 in a previous study (hTAS2R39 [2]): a activated hTAS2R39 in a previous study [16], but was selected for testing as antagonist due to ability to reduce bitter taste perception in sensory tests [9].

SMILES: O=C1CC(c2ccccc2)Oc2ccccc21 (stereo not drawn) [Compound 5, Flavanone]
- reduction of ECG response on hTAS2R39 (screening for inhibition) (hTAS2R39 [1]): did not show inhibitory activity
- activation of hTAS2R39 in a previous study (hTAS2R39 [2]): b no activation of hTAS2R39 in a previous study [16].

SMILES: O=C1CC(c2ccccc2)Oc2ccc(O)cc21 (stereo not drawn) [Compound 8, 6-Hydroxyflavanone]
- reduction of ECG response on hTAS2R39 (screening for inhibition) (hTAS2R39 [1]): did not show inhibitory activity

SMILES: O=C1CC(c2ccc(O)cc2)Oc2ccccc21 (stereo not drawn) [Compound 10, 4′-Hydroxyflavanone]
- activation of hTAS2R39 in a previous study (hTAS2R39 [2]): b no activation of hTAS2R39 in a previous study [16].

SMILES: COc1ccc2c(c1)OC(c1ccccc1)CC2=O (stereo not drawn) [Compound 12, 7-Methoxyflavanone]
- reduction of ECG response on hTAS2R39 (screening for inhibition) (hTAS2R39 [1]): did not show inhibitory activity

SMILES: COc1ccc(C2CC(=O)c3ccccc3O2)cc1 (stereo not drawn) [Compound 13, 4′-Methoxyflavanone]
- reduction of ECG response on hTAS2R39 (screening for inhibition) (hTAS2R39 [1]): did not show inhibitory activity

- EC50 (hTAS2R39 [1]; [5]): 659 ± 334 µM
- EC80 on hTAS2R39 (hTAS2R39 [1]): 1700 µM
- EC50 (hTAS2R39 [1]; agonist dose-response curve (data not shown), read-out: EC50 on hTAS2R39): 711 µM
SMILES: CC[N+](CC)(CC(=O)Nc1c(C)cccc1C)Cc1ccccc1 [Denatonium benzoate, denatonium benzoate, reference compound]

- EC50 (hTAS2R39 [1]; [5]): 128 ± 82 µM
- EC80 on hTAS2R39 (hTAS2R39 [1]): 200 µM
- EC80 on hTAS2R14 (hTAS2R14): 640 µM
SMILES: O=C(O[C@@H]1Cc2c(O)cc(O)cc2O[C@@H]1c1ccc(O)c(O)c1)c1cc(O)c(O)c(O)c1 [ECG, Epicatechin gallate, reference compound]

- EC80 on hTAS2R14 (hTAS2R14): 70 µM
SMILES: O=c1c(-c2ccc(O)cc2)coc2cc(O)cc(O)c12 [genistein, reference compound]

SMILES: COc1cc([C@@H]2CC(=O)c3c(O)cc([O-])cc3O2)ccc1O.[Na+] [homoeriodictyol Na-salt, reference compound]
- reduction of the bitter taste of different chemical classes of bitter molecules (bitter taste): up to 40%

- EC80 on hTAS2R16 (hTAS2R16; agonist dose-response curve): 10000 µM
SMILES: OCc1ccccc1O[C@@H]1O[C@H](CO)[C@@H](O)[C@H](O)[C@H]1O [salicin, reference compound]
